ChEMBL document CHEMBL1759891, “Structure based design, synthesis and SAR of cyclic hydroxyethylamine (HEA) BACE-1 inhibitors” (Bioorg Med Chem Lett, 2011)

Legend:
[1] = target: T1, Beta-secretase 1 (Homo sapiens, UniProt P56817); test: Inhibition of human BACE-1
[2] = Dissociation constant, pKa of the compound; type: physicochemical
[3] = tested on: MDR1 (P-gp); test: Permeability from basolateral to apical side in dog MDCK cells expressing human MDR-1 gene; type: ADME, cell-based, Canis lupus familiaris; conditions: read-out: permeability
[4] = target: Cathepsin D (Homo sapiens, UniProt P07339); test: Inhibition of human cathepsin D
Chain of Cathepsin D (P07339 65-162 limits assumed): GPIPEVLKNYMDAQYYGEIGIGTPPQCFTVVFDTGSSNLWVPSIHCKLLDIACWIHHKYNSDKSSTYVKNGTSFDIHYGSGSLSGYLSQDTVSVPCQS
Chain of Cathepsin D (P07339 169-412 limits assumed): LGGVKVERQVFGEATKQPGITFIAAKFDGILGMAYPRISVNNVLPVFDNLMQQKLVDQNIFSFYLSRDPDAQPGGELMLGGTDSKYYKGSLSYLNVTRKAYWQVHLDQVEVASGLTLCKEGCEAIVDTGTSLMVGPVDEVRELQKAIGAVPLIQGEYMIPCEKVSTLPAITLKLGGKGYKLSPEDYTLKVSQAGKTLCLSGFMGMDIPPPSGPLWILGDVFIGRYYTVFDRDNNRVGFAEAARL

[5] = tested on: MDR1 (P-gp); test: Permeability from apical to basolateral side in dog MDCK cells expressing human MDR-1 gene; type: ADME, cell-based, Canis lupus familiaris; conditions: read-out: permeability
[6] = tested on: MDR1 (P-gp); test: Efflux ratio of permeability from basolateral to apical side to apical to basolateral side of dog MDCK cells expressing human MDR1; type: ADME, cell-based, Canis lupus familiaris
[7] = target: T1, Beta-secretase 1; test: Inhibition of human BACE-1-mediated amyloid beta 40 release in APP-transfected […] cells; type: cell-based
[8] = Metabolic stability in rat liver microsomes assessed as half life; type: ADME, Microsome
[9] = tested on: Plasma; test: Drug level in plasma of mouse at 2 umol/kg, iv; type: ADME; conditions: read-out: Drug uptake
[10] = tested on: Brain; test: Drug level in brain of mouse at 2 umol/kg, iv; type: ADME, organism-based; conditions: in vivo, read-out: Drug uptake
[11] = species on record: Homo sapiens; test: Selectivity ratio of IC50 for human cathepsin D to IC50 for human BACE-1

T1 sequence (P56817 whole entry): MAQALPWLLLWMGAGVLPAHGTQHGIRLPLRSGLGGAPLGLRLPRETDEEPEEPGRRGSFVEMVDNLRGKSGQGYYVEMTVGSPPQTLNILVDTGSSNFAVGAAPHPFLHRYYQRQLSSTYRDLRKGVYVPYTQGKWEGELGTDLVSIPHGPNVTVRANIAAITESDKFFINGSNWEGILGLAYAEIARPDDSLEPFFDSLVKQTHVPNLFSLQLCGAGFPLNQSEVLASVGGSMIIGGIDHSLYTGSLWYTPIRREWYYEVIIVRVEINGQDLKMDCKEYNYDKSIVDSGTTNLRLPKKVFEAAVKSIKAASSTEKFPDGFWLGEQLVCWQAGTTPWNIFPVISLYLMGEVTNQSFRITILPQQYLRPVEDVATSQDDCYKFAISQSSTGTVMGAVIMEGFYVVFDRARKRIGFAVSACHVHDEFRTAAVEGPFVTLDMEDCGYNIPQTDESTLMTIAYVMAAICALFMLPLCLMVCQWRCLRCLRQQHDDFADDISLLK

With `CC(C)c1ccnc(CN[C@H]2CS(=O)(=O)C[C@@H](Cc3ccc(O)c(Br)c3)[C@@H]2O)c1` the IC50 [1] was 4300 nM.

`O=S1(=O)C[C@@H](Cc2ccc(O)c(Br)c2)[C@H](O)[C@@H](NCc2cccc(C3CC3)c2)C1` showed a pKa [2] of 5.7.

Work on `CC(C)c1cccc(CN[C@H]2CS(=O)(=O)C[C@@H](Cc3ccc(O)c(CO)c3)[C@@H]2O)c1` yielded a Papp B→A [3] of 30 ×10⁻⁶ cm/s, an IC50 [4] of 2100 nM and an IC50 [1] of 1200 nM. For the same compound, the Papp A→B [5] was 1.8 ×10⁻⁶ cm/s and the efflux ratio [6] was 17.

In the case of `CCCOc1cccc(C[C@@H]2CS(=O)(=O)C[C@H](NCc3cccc(C(C)C)c3)[C@H]2O)c1` (racemic), the Papp B→A [3] is reported as 7.9 ×10⁻⁶ cm/s, the IC50 [4] is reported as 2000 nM and the IC50 [1] is reported as 2300 nM. For the same compound, the Papp A→B [5] was 5.7 ×10⁻⁶ cm/s and the efflux ratio [6] was 1.4.

Work on `CNC(=O)Oc1ccc(C[C@@H]2CS(=O)(=O)C[C@H](NCc3cccc(C(C)C)c3)[C@H]2O)cc1Br` yielded a Papp B→A [3] of 88 ×10⁻⁶ cm/s, an IC50 [4] of 370 nM and an IC50 [1] of 60 nM. The Papp A→B [5] was 3.8 ×10⁻⁶ cm/s and the efflux ratio [6] was 23.

In the case of `CC(C)Oc1cccc(CN[C@H]2CS(=O)(=O)C[C@@H](Cc3ccc(O)c(Br)c3)[C@@H]2O)c1`, the IC50 [4] is reported as 670 nM, the IC50 [7] is reported as 8500 nM and the IC50 [1] is reported as 1400 nM.

With `CCCN1C(=O)OC[C@@H]1Cc1cc(C[C@@H]2CS(=O)(=O)C[C@H](NCc3cccc(C(C)C)c3)[C@H]2O)ccc1O` the Papp B→A [3] was 26 ×10⁻⁶ cm/s, the half-life [8] was 4 min and the IC50 [4] was 6400 nM. It also gave a concentration [9] of 670 nM, a Papp A→B [5] of 1.4 ×10⁻⁶ cm/s and a concentration [10] of less than 50 nM. It also gave an efflux ratio [6] of 19.

In the case of `N[C@H]1CS(=O)(=O)C[C@@H](Cc2ccc(O)c(Br)c2)[C@@H]1O`, the IC50 [1] is reported as greater than 100000 nM.

`COc1ccc(C[C@@H]2CS(=O)(=O)C[C@H](NCc3cccc(C(C)C)c3)[C@H]2O)cc1Br` showed a Papp B→A [3] of 9.7 ×10⁻⁶ cm/s, an IC50 [4] of 2400 nM and an IC50 [1] of 2800 nM. It also gave a Papp A→B [5] of 3.7 ×10⁻⁶ cm/s and an efflux ratio [6] of 2.6.

For `CCCCc1cc(C[C@@H]2CS(=O)(=O)C[C@H](NCc3cccc(C(C)C)c3)[C@H]2O)ccc1O`, the Papp B→A [3] was 4.2 ×10⁻⁶ cm/s, the IC50 [4] was 1900 nM and the IC50 [1] was 150 nM. The Papp A→B [5] was 0.8 ×10⁻⁶ cm/s and the efflux ratio [6] was 5.5.

With `Cc1cccc(Cc2cc(C[C@@H]3CS(=O)(=O)C[C@H](NCc4cccc(C(C)C)c4)[C@H]3O)ccc2O)c1` (racemic) the IC50 [4] was 7100 nM and the IC50 [1] was 6200 nM.

With `CC(=O)N[C@@H](Cc1cc(F)cc(F)c1)[C@H](O)CNCc1cccc(C(C)C)c1` the Papp B→A [3] was 41 ×10⁻⁶ cm/s, the IC50 [4] was 4700 nM and the IC50 [1] was 3200 nM. The Papp A→B [5] was 2.2 ×10⁻⁶ cm/s and the efflux ratio [6] was 18.

`CC(C)c1cccc(CN[C@H]2CS(=O)(=O)C[C@@H](Cc3ccc(O)c(Br)c3)[C@@H]2O)c1` showed a Papp B→A [3] of 33 ×10⁻⁶ cm/s, a half-life [8] of 3 min and an IC50 [4] of 1200 nM. It also gave an IC50 [7] of 1500 nM, an IC50 [1] of 300 nM and a concentration [9] of 1030 nM. The Papp A→B [5] was 11 ×10⁻⁶ cm/s, the concentration [10] was 210 nM and the Ratio IC50 [11] was 10. For the same compound, the efflux ratio [6] was 3.

`CC(C)c1cccc(CN[C@H]2CS(=O)(=O)C[C@@H](Cc3ccccc3)[C@@H]2O)c1` (racemic) gave a Papp B→A [3] of 24 ×10⁻⁶ cm/s, an IC50 [4] of 1900 nM and an IC50 [1] of 1100 nM. It also gave a Papp A→B [5] of 19 ×10⁻⁶ cm/s and an efflux ratio [6] of 1.2.

`CC(C)c1cccc(CN[C@H]2CS(=O)(=O)C[C@@H](Cc3ccc(O)cc3)[C@@H]2O)c1` (racemic) gave a Papp B→A [3] of 37 ×10⁻⁶ cm/s, an IC50 [4] of 5400 nM and an IC50 [1] of 1800 nM. The Papp A→B [5] was 9 ×10⁻⁶ cm/s and the efflux ratio [6] was 4.2.

`CCCc1cc(C[C@@H]2CS(=O)(=O)C[C@H](NCc3cccc(C(C)C)c3)[C@H]2O)ccc1O` showed a Papp B→A [3] of 18 ×10⁻⁶ cm/s, an IC50 [4] of 1800 nM and an IC50 [1] of 190 nM. It also gave a Papp A→B [5] of 4.2 ×10⁻⁶ cm/s and an efflux ratio [6] of 4.4.

Compound `CC(C)c1cccc(CN[C@H]2CS(=O)(=O)C[C@@H](Cc3cccc(Br)c3)[C@@H]2O)c1` (racemic) has a Papp B→A [3] of 7.7 ×10⁻⁶ cm/s, an IC50 [4] of 2300 nM and an IC50 [1] of 760 nM. For the same compound, the Papp A→B [5] was 5.4 ×10⁻⁶ cm/s and the efflux ratio [6] was 1.4.

Work on `CC(C)c1cccc(CN[C@H]2COC[C@@H](Cc3ccc(O)c(Br)c3)[C@@H]2O)c1` yielded an IC50 [1] of 55000 nM and a pKa [2] of 7.1.

`CC(C)(C)c1cccc(CN[C@H]2CS(=O)(=O)C[C@@H](Cc3ccc(O)c(Br)c3)[C@@H]2O)c1` showed a Papp B→A [3] of 16 ×10⁻⁶ cm/s, a half-life [8] of 6 min and an IC50 [4] of 420 nM. The IC50 [7] was 550 nM, the IC50 [1] was 55 nM and the concentration [9] was 320 nM. It also gave a Papp A→B [5] of 7.7 ×10⁻⁶ cm/s, a concentration [10] of 180 nM and an efflux ratio [6] of 2.1.

`CCCOCc1cccc(C[C@@H]2CS(=O)(=O)C[C@H](NCc3cccc(C(C)C)c3)[C@H]2O)c1` (racemic) gave a Papp B→A [3] of 13 ×10⁻⁶ cm/s, an IC50 [4] of 900 nM and an IC50 [1] of 1100 nM. It also gave a Papp A→B [5] of 7 ×10⁻⁶ cm/s and an efflux ratio [6] of 1.8.

In the case of `O=S1(=O)C[C@@H](Cc2ccc(O)c(Br)c2)[C@H](O)[C@@H](NCc2ccccc2)C1`, the IC50 [1] is reported as 66000 nM.

In the case of `CCc1cc(C[C@@H]2CS(=O)(=O)C[C@H](NCc3cccc(C(C)C)c3)[C@H]2O)ccc1O`, the Papp B→A [3] is reported as 45 ×10⁻⁶ cm/s, the IC50 [4] is reported as 2400 nM and the IC50 [1] is reported as 370 nM. For the same compound, the Papp A→B [5] was 15 ×10⁻⁶ cm/s and the efflux ratio [6] was 3.1.

`O=S1(=O)C[C@@H](Cc2ccc(O)c(Br)c2)[C@H](O)[C@@H](NCc2cc(Cl)cc(Cl)c2)C1` showed an IC50 [1] of 4200 nM.

Compound `CC(C)c1cccc(CN[C@H]2CS(=O)(=O)C[C@@H](Cc3ccc(O)c(CCO)c3)[C@@H]2O)c1` has a Papp B→A [3] of 28 ×10⁻⁶ cm/s, an IC50 [4] of 1700 nM and an IC50 [1] of 990 nM. For the same compound, the Papp A→B [5] was 0.9 ×10⁻⁶ cm/s and the efflux ratio [6] was 32.
